For assay [1], the target named is T1, purified wild type MGL (wt-MGLL 6H-11-313) (Homo sapiens, UniProt Q99685).
T1 sequence (Q99685 1-303): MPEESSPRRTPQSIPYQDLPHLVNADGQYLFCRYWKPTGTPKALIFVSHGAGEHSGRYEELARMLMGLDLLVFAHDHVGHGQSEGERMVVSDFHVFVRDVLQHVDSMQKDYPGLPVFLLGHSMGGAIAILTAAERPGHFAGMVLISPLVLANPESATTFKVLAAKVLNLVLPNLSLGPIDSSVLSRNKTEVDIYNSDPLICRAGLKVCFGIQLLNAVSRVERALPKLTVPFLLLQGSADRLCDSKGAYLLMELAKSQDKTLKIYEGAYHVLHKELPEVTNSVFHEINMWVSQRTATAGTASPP
The assay can be described thus: biochemical.

Assay [2] deals with T2, mutant MGL (Homo sapiens, UniProt Q99685, L169S/L176S).
T2 sequence (Q99685 1-303 L169S/L176S): T1 sequence (Q99685 1-303) with L169S, L176S
The assay can be described thus: MGL ThermoFluor assay - mutant. For orientation: Differential scanning fluorimetry follows unfolding on heating by fluorescence.
Experimental: The ThermoFluor (TF) assay is a 384-well plate-based binding assay that measures thermal stability of proteins^1,2. […] TF dye used in all experiments was 1,8-ANS (Invitrogen: A-47). Final TF assay conditions used for MGL studies were 0.07 mg/ml of mutant MGL, 100 μM ANS, 200 mM NaCl, 0.001% Tween-20 in 50 mM PIPES (pH=7.0).
Screening compound plates contained 100% DMSO compound solutions at a single concentration. […] Columns 12 and 24 were used as DMSO reference and contained no compound. […] Following compound dispension, protein and dye solutions were added to achieve the final assay volume of 3 μL.
Bar-coded assay plates were robotically loaded onto a thermostatically controlled PCR-type thermal block and then heated from 40 to 90° C. degrees at a ramp-rate of 1° C./min for all experiments. Fluorescence was measured by continuous illumination with UV light (Hamamatsu LC6), supplied via fiber optics and filtered through a band-pass filter (380-400 nm; >60D cutoff). Fluorescence emission of the entire 384-well plate was detected by measuring light intensity using a CCD camera (Sensys, Roper Scientific) filtered to detect 500±25 nm, resulting in simultaneous and independent readings of all 384 wells. A single image with 20-sec exposure time was collected at each temperature, and the sum of the pixel intensity in a given area of the assay plate was recorded vs temperature and fit to standard equations to yield the Tm^1. • 1.
For some experiments, quantitative NMR spectroscopy (qNMR) was used to measure concentration of the initial 100% DMSO compound solutions and, using the same fitting method, qKd values were determined

Assay [3] has as its system rat. The experiment in a line: CFA-induced paw radiant heat hypersensitivity. The class given is in vivo. The following applies: 30 mg/kg p.o., HPβCD, last time point 300 min, group mean values. The method, then:
Each rat was placed in a test chamber on a warm glass surface and allowed to acclimate for approximately 10 min. A radiant thermal stimulus (beam of light) was then focused through the glass onto the plantar surface of each hind paw in turn. The thermal stimulus was automatically shut off by a photoelectric relay when the paw was moved or when the cut-off time was reached (20 sec for radiant heat at ˜5 amps). An initial (baseline) response latency to the thermal stimulus was recorded for each animal prior to the injection of complete Freund's adjuvant (CFA). 24 h following intraplantar CFA injection, the response latency of the animal to the thermal stimulus was then re-evaluated and compared to the animal's baseline response time. […] Post-compound treatment withdrawal latencies were assessed at fixed time intervals, typically 30, 60, 120, 180, and 300 min.
The percent reversal (% R) of hypersensitivity was calculated in one of two different ways: 1) using group mean values or 2) using individual animal values. […]
Method 1. For all compounds, the % R of hypersensitivity was calculated using the mean value for groups of animals at each time point according to the following formula: % reversal=[(group treatment response−group CFA response)/(group baseline response−group CFA response)]×100 Results are given for the maximum % reversal observed for each compound at any time point tested. […]

Assay [4] has as its target T3, MGL (Rattus norvegicus, UniProt Q8R431).
T3 construct: one g rat brain was homogenized using a Polytron homogenizer; from tissue; host or cells: rat brain homogenate
T3 sequence (Q8R431 1-303): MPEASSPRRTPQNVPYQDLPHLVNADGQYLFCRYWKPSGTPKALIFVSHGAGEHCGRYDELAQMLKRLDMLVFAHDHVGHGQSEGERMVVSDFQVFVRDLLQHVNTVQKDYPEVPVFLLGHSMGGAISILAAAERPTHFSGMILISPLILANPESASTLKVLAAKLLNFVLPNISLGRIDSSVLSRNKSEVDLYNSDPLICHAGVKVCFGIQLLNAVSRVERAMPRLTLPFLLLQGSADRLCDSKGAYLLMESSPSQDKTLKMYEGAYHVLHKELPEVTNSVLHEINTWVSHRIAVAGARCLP
The experiment in a line: 2-AG accumulation assay in rat brain homogenate. The class given is biochemical. The settings on record: compound 1 μM, percent vehicle = 2-AG accumulation with compound / in vehicle x 100, read-out: Rat Brain 2AG % VehCntrl (%) @1 μM.

The structures appear in SMILES notation. Changes are numbered by the printed parent chain.

As a reminder, the IC50 is the concentration at which inhibition is half-maximal. Read a low IC50 as greater potency in that assay. By Kd is commonly meant the concentration at which binding is half-saturated. Low values mean higher affinity, high ones lower affinity. `Cc1cn(-c2ccc(F)c(F)c2)c2ccc(C(=O)N3CCN(C4CN(C(=O)c5ccc[nH]5)C4)CC3)cc12` [Cpd 1219, 1-(3,4-Difluorophenyl)-3-methyl-5-({4-[1-(1H-pyrrol-2-ylcarbonyl)azetidin-3-yl]piperazin-1-yl}carbonyl)-1H-indole] returned an IC50 in assay [1] of 235 nM. For the same molecule, the Kd in assay [2] was found to be 25 nM. For `Cc1nc(C(=O)N2CCN(C3CN(C(=O)c4ccc(-c5cccc(C(F)(F)F)c5)cc4)C3)CC2)cs1` [Cpd 1217, 1-[(2-Methyl-1,3-thiazol-4-yl)carbonyl]-4-(1-{[3′-(trifluoromethyl)biphenyl-4-yl]carbonyl}azetidin-3-yl)piperazine] the same measures were 220 nM and 104 nM. Take `O=C(c1ccc(-c2cccc(C(F)(F)F)c2)c(Cl)c1)N1CC(N2CCN(C(=O)c3cscn3)CC2)C1` [Cpd 1102]: the “Method 1: peak % reversal” value in assay [3] is recorded as 38%.

On to `O=C(c1ccc2c(ccn2-c2ccc(C(F)(F)F)cc2)c1)N1CCN(C2CN(C(=O)c3cscn3)C2)CC1` [Cpd 1337, 5-({4-[1-(1,3-Thiazol-4-ylcarbonyl)azetidin-3-yl]piperazin-1-yl}carbonyl)-1-[4-(trifluoromethyl)phenyl]-1H-indole], for which the IC50 in assay [1] was under 5 nM. For the same molecule, the dissociation constant Kd in assay [2] came out at 40 nM. `O=C(c1ccc[nH]1)N1CC(N2CCN(C(=O)c3cc4cc(C(F)(F)F)ccc4s3)CC2)C1` [Cpd 722, 1-[1-(1H-Pyrrol-2-ylcarbonyl)azetidin-3-yl]-4-{[5-(trifluoromethyl)-1-benzothiophen-2-yl]carbonyl}piperazine]: the activity at 1 µM in assay [4] amounted to 240%.

In turn, `O=C(c1ccc(-c2cccc(C(F)(F)F)c2)cc1)N1CC(N2CCN(C(=O)c3ccc(F)s3)CC2)C1` [Cpd 1336, 1-[(5-Fluorothiophen-2-yl)carbonyl]-4-(1-{[3′-(trifluoromethyl)biphenyl-4-yl]carbonyl}azetidin-3-yl)piperazine] displayed an IC50 in assay [1] of under 5 nM. In addition, in assay [2], the Kd worked out at 2 nM.

On to `C/C(=C\c1ccc(Cl)cc1)c1c(C)c(C(=O)N2CC(N3CCN(C(=O)c4nccs4)CC3)C2)nn1-c1ccc(Cl)cc1Cl` [Cpd 1010], for which the inhibition in vivo at 30 mg/kg in assay [3] (Rattus norvegicus, po, 5 h, read-out: Method 1: peak % reversal) worked out at 23.4%. On to `O=C(c1ccccc1)N1CCN(C2CN(C(=O)c3ccc4c(c3)c(F)cn4-c3ccc(F)cc3)C2)CC1` [Cpd 574, 3-Fluoro-1-(4-fluorophenyl)-5-({3-[4-(phenylcarbonyl)piperazin-1-yl]azetidin-1-yl}carbonyl)-1H-indole], for which inhibition in assay [1] was half-maximal at 49 nM (IC50). Moreover, in assay [2], binding was put at a Kd of 48 nM.

These data come from patent US8362001B2, “Azetidinyl diamides as monoacylglycerol lipase inhibitors” (Janssen Pharmaceutica NV, priority 2009, dated 2013).
